Results published in patent US10364242B2, “Modulation of N-acylethanolamine-hydrolysing acid amidase (NAAA) for disease treatment” (FONDAZIONE ISTITUTO ITALIANO DI TECNOLOGIA, priority 2017, dated 2019).

Columns and labels:
[1] = molecular target: T1, h-NAAA (Homo sapiens (Human), UniProt Q02083); assay: Fluorogenic h-NAAA assay; format: biochemical; conditions: PAMCA substrate 2.0 μM, pH 4.5, 30 min pre-incubation
Protocol: (§1) Human recombinant proteins were obtained from HEK-293 stable overexpressing NAAA, AC and FAAH cell lines, respectively. Cells were grown in Dulbecco's modified Eagle medium (DMEM) containing 10% FBS, 1% penicillin/streptomycin, 1% glutamine and 500 μg/mL G418. To obtain membrane preparation cells were scraped off with cold phosphate-buffered saline (PBS) and collected by centrifugation (300×g, 7 min, 4° C.). Cell pellets were stored at −80° C. until protein preparation.
(§2) Preparation of enzyme-enriched lysate (h-NAAA and hAC). HEK-293 cells stably transfected with the human NAAA or human AC coding sequences were used as enzyme source. […] The suspension was finally ultracentrifuged at 105,000×g for 1 h at 4° C., supernatants were collected, protein concentration was measured and samples aliquoted and stored at −80° C. until use.
The assay was run in 96-well microplates (Black OptiPlate™-96 F; PerkinElmer, Massachusetts, USA), in a total reaction volume of 200 μL. h-NAAA protein preparation (4.0 μg) was pre-incubated for 30 min with various concentrations of test compounds or vehicle control (DMSO 5%) in 100 mM citrate/phosphate buffer (pH 4.5) containing 3.0 mM DTT, 0.1% NP40 0.1%, 0.05% BSA, 150 mM NaCl. […] Fluorescence was measured with EnVision 2014 Multilabel Reader (PerkinElmer, Massachusetts, USA) using an excitation wavelength of 355 nm and emission 460 nm. […]
Target sequence in this assay (Q02083 29-359): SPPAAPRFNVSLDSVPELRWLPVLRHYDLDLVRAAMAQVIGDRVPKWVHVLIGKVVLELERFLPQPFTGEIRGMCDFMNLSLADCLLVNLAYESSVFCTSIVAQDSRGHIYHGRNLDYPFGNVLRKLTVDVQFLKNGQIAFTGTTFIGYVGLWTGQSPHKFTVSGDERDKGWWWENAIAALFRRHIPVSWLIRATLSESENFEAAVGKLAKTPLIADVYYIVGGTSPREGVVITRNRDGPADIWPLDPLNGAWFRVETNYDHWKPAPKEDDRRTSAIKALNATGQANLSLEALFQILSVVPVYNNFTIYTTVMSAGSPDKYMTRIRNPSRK

[2] = molecular target: h-AC (Acid Ceramidase) (Homo sapiens (Human), UniProt Q13510); assay: Fluorogenic h-AC assay; format: biochemical; conditions: pH 4.5, 10 min pre-incubation
Chain of h-AC (Acid Ceramidase) (Q13510 22-395): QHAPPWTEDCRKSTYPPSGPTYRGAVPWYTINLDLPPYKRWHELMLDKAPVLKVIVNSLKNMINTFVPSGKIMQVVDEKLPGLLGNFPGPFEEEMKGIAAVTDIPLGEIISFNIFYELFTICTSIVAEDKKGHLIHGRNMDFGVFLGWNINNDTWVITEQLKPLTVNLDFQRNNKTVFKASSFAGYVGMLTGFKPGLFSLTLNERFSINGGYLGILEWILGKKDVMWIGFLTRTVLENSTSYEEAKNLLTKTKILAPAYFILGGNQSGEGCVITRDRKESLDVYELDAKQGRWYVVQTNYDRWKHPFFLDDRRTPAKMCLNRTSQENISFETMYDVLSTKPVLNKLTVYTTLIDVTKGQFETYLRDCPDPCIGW
Protocol: as §1, §2
The assay was run in 96-well microplates (Black OptiPlate™-96 F; PerkinElmer, Massachusetts, USA) in a total reaction volume of 100 μL. h-AC protein preparation (2.0 μg) was pre-incubated for 10 min with various concentrations of test compounds or vehicle control (DMSO 5%) in 25 mM sodium acetate buffer (pH 4.5). […] Fluorescence was measured with EnVision 2014 Multilabel Reader (PerkinElmer, Massachusetts, USA) using an excitation wavelength of 355 nm and emission 460 nm. […]

[3] = molecular target: h-FAAH1 (Fatty Acid Amide Hydrolase) (Homo sapiens (Human), UniProt O00519); assay: Fluorogenic h-FAAH assay; format: biochemical; conditions: AMC arachidonoyl amide 800 nM, pH 7.4, 50 min pre-incubation
Chain of h-FAAH1 (Fatty Acid Amide Hydrolase) (O00519 whole entry): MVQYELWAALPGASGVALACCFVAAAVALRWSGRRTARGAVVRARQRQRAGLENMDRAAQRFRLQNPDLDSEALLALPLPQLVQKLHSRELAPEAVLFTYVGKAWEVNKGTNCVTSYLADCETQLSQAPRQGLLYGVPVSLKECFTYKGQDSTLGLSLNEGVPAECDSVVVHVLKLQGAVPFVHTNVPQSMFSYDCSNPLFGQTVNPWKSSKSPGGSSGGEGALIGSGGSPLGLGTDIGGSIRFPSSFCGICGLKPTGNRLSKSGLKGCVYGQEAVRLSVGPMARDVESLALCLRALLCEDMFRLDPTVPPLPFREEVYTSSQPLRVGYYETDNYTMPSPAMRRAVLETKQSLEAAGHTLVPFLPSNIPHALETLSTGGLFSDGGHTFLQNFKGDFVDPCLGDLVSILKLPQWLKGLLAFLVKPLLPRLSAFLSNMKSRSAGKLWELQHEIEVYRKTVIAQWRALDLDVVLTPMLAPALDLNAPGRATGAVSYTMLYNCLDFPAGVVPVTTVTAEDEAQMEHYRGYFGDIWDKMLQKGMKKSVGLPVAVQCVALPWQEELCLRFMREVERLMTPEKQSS
Protocol: as §1
Preparation of membrane-enriched lysate (h-FAAH). […]
The fluorescent assay to measure FAAH activity was performed in 96 wells black plates: 2.5 μg of human FAAH-1 membrane preparation were pre-incubated for 50 min at 37° C., in 190 μL of assay buffer (50 mM TrisHCl pH 7.4, 0.05% Fatty acid-free BSA) with 5 μL of inhibitor or 5 μL DMSO to measure FAAH total activity. […] The reaction was carried out for 45 minutes at 37° C. and fluorescence was measured with EnVision 2014 Multilabel Reader (PerkinElmer, Massachusetts, USA) (excitation wavelength 355 nm/emission wavelength 460 nm). The concentration causing half-maximal inhibition (IC50) was determined by nonlinear regression analysis of the Log [concentration]/response curves generated with mean replicate values using a four-parameter Hill equation curve fitting with GraphPad Prism 5 (GraphPad Software Inc., CA, USA).

[4] = molecular target: T1, h-NAAA; assay: Dialysis test (reversibility of inhibition); format: biochemical
Target sequence in this assay (Q02083 29-359): as the sequence (Q02083 29-359) above

[5] = molecular target: T1, h-NAAA; assay: Competitive Activity Based Protein Profiling (ABPP); format: biochemical; conditions: 20 μM, lysosomal extracts of h-NAAA overexpressing HEK293 cells, probe ARN14686
Protocol: FIG. 1 is a picture showing the SDS-PAGE analysis resulting from the Competitive Activity Based Protein Profiling (ABPP): in summary, lysosomal extracts of h-NAAA overexpressing HEK293 cells were incubated with a vehicle (2% DMSO), ARN15393 (covalent h-NAAA inhibitor) or ARN16186, for 2 h before addition of probe ARN14686; a rhodamine fluorophore was inserted by a click chemistry. The arrow indicates NAAA;
(§3) h-NAAA was produced and purified from h-NAAA overexpressing HEK293 cell line as described (ACS Med Chem Lett 2012, 3, 422-426). The purified enzyme was incubated in activation buffer [100 mM Sodium Phosphate/Sodium Citrate Buffer, 3 mM DL-dithiothreitol (DTT), 0.1% Triton X100, pH 4.5] for 3 h at 37° C. and the enzyme activation was checked by SDS-PAGE and Coomassie blue staining.
For competitive ABPP, 50 μL of lysosomal enrichment (0.5 mg/mL) from of h-NAAA-overexpressing HEK293 cell line were incubated 2 h at 37° C. with ARN16186 or covalent inhibitor ARN15393^(*^) at a final concentration of 20 μM (DMSO 2%). At the end of this pre-incubation time, the activity based probe undec-10-ynyl-N—[(S)-2-oxoazetidin-3-yl]carbamate (ARN14686) (ACS Chem. Biol. 2015, 10, 2057-2064) was added at 20 μM for 15 min or for 3.5 h at 37° C. […] Samples (10 μL) were analysed by SDS-PAGE and gel florescence was scanned at 532 nm wavelength (Fuji Film FLA-9000 instrument).
Target sequence in this assay (Q02083 29-359): as above

[6] = molecular target: T1, h-NAAA; assay: Inhibitors recovery assay (LC/MS); format: biochemical; conditions: LC/MS recovery study, 1 μM compound, 2 h at 37° C. with h-NAAA
Protocol: FIG. 2 is a histogram resulting from the inhibitors recovering assay: ordinate: % recovery of compounds after h-NAAA incubation; ARN16186 and covalent inhibitor ARN15393 were incubated with NAAA (right bars) or buffer alone (left bars) and quantified in supernatant after protein precipitation;
as §3
Target sequence in this assay (Q02083 29-125): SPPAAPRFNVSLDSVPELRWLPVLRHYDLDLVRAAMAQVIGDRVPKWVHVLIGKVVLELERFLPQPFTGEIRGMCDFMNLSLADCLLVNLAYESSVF
Target sequence in this assay (Q02083 126-359): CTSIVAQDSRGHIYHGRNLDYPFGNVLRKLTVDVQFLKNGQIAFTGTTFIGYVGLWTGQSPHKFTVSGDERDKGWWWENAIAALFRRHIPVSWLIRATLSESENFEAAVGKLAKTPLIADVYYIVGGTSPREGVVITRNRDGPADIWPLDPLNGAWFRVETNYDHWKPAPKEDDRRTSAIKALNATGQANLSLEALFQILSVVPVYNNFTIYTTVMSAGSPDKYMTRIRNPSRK
h-NAAA (25 μL of a 2 μM solution) was incubated with ARN16186 or covalent inhibitor ARN15393 at the concentration of 1 μM in activation buffer, 2 h at 37° C. Samples were next precipitated with ten volumes of acetonitrile and centrifuged 10 min at 12000×g. The supernatants were recovered and analysed by LCMS/MS for the presence of the added compound. No-protein control samples (buffer only) were used as 100% recovery reference. Compound was detected and quantified using a Waters ACQUITY UPLC/MS TQD system consisting of a TQD (Triple Quadrupole Detector) mass spectrometer, equipped with an electrospray ionization interface. […] Compound was quantified monitoring its MRM peak area. […]

[7] = system: sciatic nerve chronic constriction injury (CCI) model of persistent hyperalgesia and allodynia; assay: Chronic Constriction Injury (CCI) of the sciatic nerve; format: in vivo; conditions: mice
Protocol: Sciatic nerve ligations were performed according to Bennett and Xie (Pain. 1988, 33, 87-107). Adult male CD1 mice were anesthetized with 2-3% isoflurane, and the left sciatic nerve was exposed at mid-thigh level through a small incision and tied at two distinct sites (spaced at a 2-mm interval) with a silk thread. The wound was closed with a single muscle suture and skin clips, and dusted with streptomycin. In sham-operated animals, the nerve was exposed but not tied. All experiments were performed in a quiet room, and experimenters were blinded to the treatment protocol at the time of the test.
Heat hyperalgesia was assessed by the method of Hargreaves et al. (Pain. 1988, 32, 77-88) measuring the latency to withdraw the hind paw from a focused beam of radiant heat (thermal intensity: infrared 3.0) applied to the plantar surface in a plantar test apparatus (Ugo Basile). The cutoff time was set at 30 s.
Tactile allodynia (dynamic plantar esthesiometer; Ugo Basile) was assessed as described by La Rana et al. (Neuropharmacology 2008, 54,521-529) using the Von Frey dynamic plantar aesthesiometer (DPA). Animals were placed individually in a small testing arena (20 cm×18.5 cm×13 cm) with a wire mesh floor for 5 min. The DPA device was positioned beneath the animal, so that the filament was directly under the plantar surface of the paw to be tested. […] The DPA automatically records the force at which the paw is withdrawn and the withdrawal latency (latency and maximum force are directly related, because the device progressively increases force until withdrawal occurs). Mechanical hyperalgesia was recorded according to the Randall Sellito measurement.
ARN16186 was then studied for its ability to alleviate established chronic pain condition (therapeutic effect). The compound was tested in the sciatic nerve chronic constriction injury (CCI) model of persistent hyperalgesia and allodynia in mice, a model that has both inflammatory and neuropathic pain components. ARN16186 (0.3, 1.0, 3.0 and 10 mg kg^−1, p.o.) was administered on day 7 and day 14, after left sciatic nerve ligation, and pain readouts were measured 2 h after dosing.

[8] = single administration 0.3, 1.0, 3.0 and 10 mg kg^−1 p.o., day 7 and day 14 after ligation, 2 h after dosing, dose-dependent

CCCCc1ccc(OC2CC3CCC(C2)N3S(=O)(=O)c2c(C)n[nH]c2C)cc1 (stereo not drawn) [ARN16186, (endo)-3-(4-butylphenoxy)-8-[(3,5-dimethyl-1H-pyrazol-4-yl)sulfonyl]-8-azabicyclo[3.2.1.]octane] was tested, and the IC50 [1] was 23 ± 4 nM, the IC50 [2] was > 30 µM and the IC50 [3] was > 30 µM. The “recovery in a dialysis test” value ([4]; after 24 h) was “ca. 30%”, the “mode of inhibition (dialysis test)” value ([4]; after 24 h dialysis) was “partially reversible” and the mechanism of inhibition [5] was “non-covalent”. For the same compound, the mechanism of inhibition [6] was “non-covalent”, the “dose with full effect on hyperalgesia and allodynia” value ([7]; p.o., single administration, readout 2 h after dosing) was 10 mg/kg and the mechanical hyperalgesia [7, 8] was “reduce significantly”. For the same compound, the tactile allodynia [7, 8] was “reduce significantly” and the thermal hyperalgesia [7, 8] was “reduce significantly”.
